Measured values taken from PubChem BioAssay AID328 (DTP/NCI, 2004).
Several values for one entry are separate records, joined by “and”; a condition that tells them apart may be missing. Identical values can stand only once. Toxic doses and inconclusive results are not listed.

System: BDF1 mice, P388 leukemia ip, median survival T/C
Test: NCI In Vivo Anticancer Drug Screen. Data for tumor model P388 Leukemia (intraperitoneal) in B6D2F1 (BDF1) mice
Conditions: endpoint: median survival time, higher = longer survival
Method in brief: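 Compound-treated tumour-bearing mice were compared with vehicle-treated controls. Survival was recorded, and the value is the treated-group measurement divided by the control-group measurement (T/C).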

[1] = dose: 50.0 mg/kg/injection, schedule: Q01DX009 (ip), vehicle: saline with Tween-80
[2] = dose: 100.0 mg/kg/injection, schedule: Q01DX009 (ip), vehicle: saline with Tween-80
[3] = dose: 12.5 mg/kg/injection, schedule: Q04DX003 (ip), vehicle: saline
[4] = dose: 25.0 mg/kg/injection, schedule: Q04DX003 (ip), vehicle: saline
[5] = dose: 200.0 mg/kg/injection, schedule: Q01DX009 (ip), vehicle: saline with Tween-80
[6] = dose: 400.0 mg/kg/injection, schedule: Q01DX009 (ip), vehicle: saline with Tween-80
[7] = dose: 50.0 mg/kg/injection, schedule: Q04DX003 (ip), vehicle: saline
[8] = dose: 100.0 mg/kg/injection, schedule: Q04DX003 (ip), vehicle: saline with Tween-80
[9] = dose: 200.0 mg/kg/injection, schedule: Q04DX003 (ip), vehicle: saline with Tween-80
[10] = dose: 400.0 mg/kg/injection, schedule: Q04DX003 (ip), vehicle: saline with Tween-80
[11] = dose: 100.0 mg/kg/injection, schedule: Q01DX001 (ip), vehicle: Klucel (hydroxypropylcellulose) (HPC)
[12] = dose: 100.0 mg/kg/injection, schedule: Q01DX009 (ip), vehicle: Klucel (hydroxypropylcellulose) (HPC)
[13] = dose: 200.0 mg/kg/injection, schedule: Q01DX001 (ip), vehicle: Klucel (hydroxypropylcellulose) (HPC)
[14] = dose: 200.0 mg/kg/injection, schedule: Q01DX009 (ip), vehicle: Klucel (hydroxypropylcellulose) (HPC)
[15] = dose: 400.0 mg/kg/injection, schedule: Q01DX001 (ip), vehicle: Klucel (hydroxypropylcellulose) (HPC)
[16] = dose: 400.0 mg/kg/injection, schedule: Q01DX009 (ip), vehicle: Klucel (hydroxypropylcellulose) (HPC)
[17] = dose: 50.0 mg/kg/injection, schedule: Q01DX001 (ip), vehicle: saline sonified
[18] = dose: 100.0 mg/kg/injection, schedule: Q01DX001 (ip), vehicle: saline sonified
[19] = dose: 25.0 mg/kg/injection, schedule: Q01DX009 (ip), vehicle: saline with Tween-80
[20] = dose: 12.5 mg/kg/injection, schedule: Q01DX009 (ip), vehicle: saline with Tween-80

CN(C)[C@@H]1C(=O)C(C(N)=O)=C(O)[C@@]2(O)C(=O)C3=C(O)c4c(O)ccc(Cl)c4[C@@](C)(O)[C@H]3C[C@@H]12
T/C (dose: 132.0 mg/kg/injection, schedule: Q01DX009 (ip), vehicle: saline): 122 % of control
T/C (dose: 200.0 mg/kg/injection, schedule: Q01DX009 (ip), vehicle: saline): 122 % of control

O=C1NN=C(c2ccc(Br)cc2)CS1
T/C [1]: 100 % of control
T/C [2]: 102 % of control

Clc1ccc2nc(CI)c(CI)nc2c1
T/C (dose: 3.12 mg/kg/injection, schedule: Q01DX009 (ip), vehicle: Klucel (hydroxypropylcellulose) (HPC)): 100 % of control
T/C (dose: 6.25 mg/kg/injection, schedule: Q01DX009 (ip), vehicle: Klucel (hydroxypropylcellulose) (HPC)): 100 % of control and 122 % of control
T/C (dose: 6.25 mg/kg/injection, schedule: Q04DX003 (ip), vehicle: saline): 108 % of control
T/C (dose: 12.5 mg/kg/injection, schedule: Q01DX009 (ip), vehicle: Klucel (hydroxypropylcellulose) (HPC)): 88 % of control and 100 % of control
T/C [3]: 108 % of control
T/C (dose: 22.0 mg/kg/injection, schedule: Q01DX009 (ip), vehicle: saline with Tween-80): 122 % of control
T/C (dose: 25.0 mg/kg/injection, schedule: Q01DX009 (ip), vehicle: Klucel (hydroxypropylcellulose) (HPC)): 95 % of control
T/C [4]: 104 % of control
T/C (dose: 33.0 mg/kg/injection, schedule: Q01DX009 (ip), vehicle: saline with Tween-80): 113 % of control

CC1(C)CC(=O)C=C(OCCc2ccccc2)C1
T/C [2]: 100 % of control
T/C [5]: 109 % of control
T/C [6]: 118 % of control

CCOC(=O)C1=C(C)NC(C)=C(C(=O)OCC)C1c1ccc([N+](=O)[O-])s1
T/C [1]: 106 % of control
T/C [2]: 99 % of control

COC1CCC(C)(C=O)C(C#N)(C#N)C1(C#N)C#N (centres undefined)
T/C (dose: 12.5 mg/kg/injection, schedule: Q01DX001 (ip), vehicle: saline with Tween-80): 98 % of control
T/C (dose: 25.0 mg/kg/injection, schedule: Q01DX001 (ip), vehicle: saline with Tween-80): 114 % of control
T/C (dose: 50.0 mg/kg/injection, schedule: Q01DX001 (ip), vehicle: saline with Tween-80): 109 % of control

CC(C)(C)C1=C[P+](c2ccccc2)(c2ccccc2)C(C(C)(C)C)=C[P+]1(c1ccccc1)c1ccccc1
T/C (dose: 12.5 mg/kg/injection, schedule: Q01DX009 (ip), vehicle: saline): 96 % of control
T/C [3]: 96 % of control
T/C (dose: 25.0 mg/kg/injection, schedule: Q01DX009 (ip), vehicle: saline): 107 % of control
T/C [4]: 100 % of control
T/C [7]: 96 % of control

Cc1nc(N)ncc1CCC1OCCO1
T/C (dose: 100.0 mg/kg/injection, schedule: Q01DX001 (ip), vehicle: saline): 100 % of control
T/C (dose: 200.0 mg/kg/injection, schedule: Q01DX001 (ip), vehicle: saline): 109 % of control
T/C (dose: 400.0 mg/kg/injection, schedule: Q01DX001 (ip), vehicle: saline): 111 % of control

CC1(C)N=C(N)N=C(N)N1c1cccc(C#N)c1
T/C (dose: 22.0 mg/kg/injection, schedule: Q04DX003 (ip), vehicle: saline): 111 % of control and 118 % of control
T/C (dose: 33.0 mg/kg/injection, schedule: Q04DX003 (ip), vehicle: saline): 122 % of control and 123 % of control
T/C [7]: 118 % of control and 123 % of control
T/C (dose: 75.0 mg/kg/injection, schedule: Q04DX003 (ip), vehicle: saline): 95 % of control
T/C (dose: 100.0 mg/kg/injection, schedule: Q04DX003 (ip), vehicle: saline): 116 % of control

O=C(NC(=O)c1c(F)cccc1F)Nc1ncc(Cl)cc1Cl
T/C [1]: 90 % of control
T/C [2]: 100 % of control
T/C [5]: 90 % of control

CCCSCCCCSCCC
T/C [8]: 109 % of control
T/C [9]: 113 % of control
T/C [10]: 109 % of control

CC(C)(O)c1cnc(OCc2ccccc2)nc1OCc1ccccc1
T/C [11]: 109 % of control
T/C [12]: 95 % of control
T/C [13]: 104 % of control
T/C [14]: 91 % of control
T/C [15]: 95 % of control
T/C [16]: 86 % of control

NCCCC(NC(=O)CCCCCCCCN=C(N)N)C(O)CCCCCCCCN=C(N)N (centres undefined)
T/C (dose: 3.75 mg/kg/injection, schedule: Q01DX010 (ip), vehicle: saline): 91 % of control

CCCCCCCCCC(=O)NC(C)C(O)c1ccccc1 (centres undefined)
T/C [1]: 109 % of control
T/C [2]: 100 % of control
T/C [5]: 89 % of control

OCCNCCN=Cc1ccccc1O
T/C [17]: 87 % of control
T/C [18]: 91 % of control
T/C (dose: 200.0 mg/kg/injection, schedule: Q01DX001 (ip), vehicle: saline sonified): 100 % of control

O=C(CN1CCOCC1)Nc1cccc(C(F)(F)F)c1
T/C [8]: 86 % of control
T/C [9]: 86 % of control
T/C [10]: 109 % of control

Cc1nc(C)c(Br)s1
T/C [19]: 100 % of control
T/C [1]: 100 % of control
T/C [2]: 107 % of control

CC(C)=CCC/C(C)=C/CN1C(=O)CC(C)=C(C)C1=O
T/C [8]: 100 % of control
T/C [9]: 100 % of control
T/C [10]: 104 % of control

CNC(=S)N/N=C(\C)CSC/C(C)=N/NC(=S)NC
T/C (dose: 7.5 mg/kg/injection, schedule: Q01DX009 (ip), vehicle: saline with Tween-80): 102 % of control
T/C (dose: 15.0 mg/kg/injection, schedule: Q01DX009 (ip), vehicle: saline with Tween-80): 99 % of control and 122 % of control
T/C (dose: 30.0 mg/kg/injection, schedule: Q01DX009 (ip), vehicle: saline with Tween-80): 102 % of control and 124 % of control
T/C (dose: 60.0 mg/kg/injection, schedule: Q01DX009 (ip), vehicle: saline with Tween-80): 92 % of control

CC(CCCC1SCC2NC(=O)NC21)C(=O)O (centres undefined)
T/C [12]: 102 % of control
T/C [14]: 91 % of control
T/C [16]: 98 % of control

CCOC(=O)CCC(NC(=O)c1cc(Cl)c(N(C)S(=O)(=O)c2ccc(C)cc2)cc1Cl)C(=O)OCC (centres undefined)
T/C (dose: 25.0 mg/kg/injection, schedule: Q01DX001 (ip), vehicle: saline sonified): 109 % of control
T/C [17]: 104 % of control
T/C [18]: 104 % of control

COc1cccc2c1C(=O)c1c(O)c3c(c(O)c1C2=O)CC(O)(/C(C)=N\NC(=O)N/N=C(\C)C1(O)Cc2c(O)c4c(c(O)c2C(OC2CC(N)C(O)C(C)O2)C1)C(=O)c1c(OC)cccc1C4=O)CC3OC1CC(N)C(O)C(C)O1 (centres undefined)
T/C (dose: 3.13 mg/kg/injection, schedule: Q04DX003 (ip), vehicle: water): 108 % of control
T/C (dose: 6.25 mg/kg/injection, schedule: Q04DX003 (ip), vehicle: water): 117 % of control
T/C (dose: 12.5 mg/kg/injection, schedule: Q04DX003 (ip), vehicle: water): 117 % of control
T/C (dose: 50.0 mg/kg/injection, schedule: Q04DX003 (ip), vehicle: water): 153 % of control
T/C (dose: 100.0 mg/kg/injection, schedule: Q04DX003 (ip), vehicle: water): 162 % of control

C[N-]c1nnnn1C.[Au+].c1ccc([PH+](c2ccccc2)c2ccccc2)cc1
T/C (dose: 6.25 mg/kg/injection, schedule: Q01DX009 (ip), vehicle: saline with Tween-80): 108 % of control
T/C [20]: 108 % of control
T/C [19]: 108 % of control

Nc1ccc(S(=O)(=O)N/N=C/c2ccccc2Cl)cc1
T/C [20]: 96 % of control
T/C [19]: 96 % of control
T/C [1]: 92 % of control

CC(=O)OC1C=CC(=O)OC1C1OC1C (centres undefined)
T/C (dose: 3.0 mg/kg/injection, schedule: Q01DX010 (ip), vehicle: carboxymethylcellulose (CMC)): 90 % of control
T/C (dose: 6.0 mg/kg/injection, schedule: Q01DX010 (ip), vehicle: carboxymethylcellulose (CMC)): 90 % of control
T/C (dose: 12.0 mg/kg/injection, schedule: Q01DX010 (ip), vehicle: carboxymethylcellulose (CMC)): 100 % of control
T/C (dose: 25.0 mg/kg/injection, schedule: Q01DX010 (ip), vehicle: carboxymethylcellulose (CMC)): 109 % of control

CC(=O)Nc1ccc(C(=O)NN)cc1
T/C [2]: 108 % of control
T/C [5]: 105 % of control
T/C [6]: 97 % of control

CCOc1ccc(Nc2cc([N+](=O)[O-])ccc2C(=O)O)cc1
T/C (dose: 50.0 mg/kg/injection, schedule: Q04DX003 (ip), vehicle: saline with Tween-80): 100 % of control
T/C [8]: 90 % of control
T/C [9]: 90 % of control

CNCCCC12CC(c3ccccc31)c1ccccc12
T/C [19]: 103 % of control
T/C [1]: 101 % of control
T/C [2]: 112 % of control

CC(=O)c1c(C)[nH]c(C(=O)OC(C)(C)C)c1C
T/C [11]: 113 % of control
T/C [13]: 100 % of control
T/C [15]: 109 % of control
